The nature of data set [1]: Clinical Trial 2: safety and tolerability in RCC patients. The data set is classed as in vivo, human. Conditions: single 5 mg ODT. An excerpt: Safety assessments consisted of monitoring and recording protocol-defined adverse events (AEs) and serious adverse events (SAEs); vital signs; physical examinations; clinical laboratory assessments; electrocardiograms (ECGs); and other protocol-specified tests that were deemed critical to the safety evaluation of the study drug.

The test system of data set [2] is isolated guinea pig vagal nerves. Put plainly: Capsaicin-induced depolarization on isolated guinea pig vagal nerves (grease-gap recording). The procedure:
The vagal nerve is the main afferent pathway of the cough reflex loop. Therefore, the ability—and dependence on TRPM8—of AX-8 to inhibit the capsaicin-induced depolarization on isolated guinea pig vagal nerves was assessed. The tissue was assayed using an O2/CO2 gassed, grease-gap recording system as previously described (see, e.g., Birrell et al., 2009). Briefly, after the tissue has stabilised, it was exposed to a challenge (capsaicin, 1 μM, TRPV1 agonist for 2 minutes), then washed. This was then repeated to confirm the basal response. After washing, the tissue was incubated with vehicle or AX-8 (10 nM-1 mM) for 10 minutes. Following this, the tissue was re-challenged with capsaicin (in the presence of vehicle or AX-8).
Where the TRPM8 antagonist PF-05105679 (PF, 10 μM) was used, following the two reproducible responses to capsaicin, the nerve was incubated with the TRPM8 antagonist or vehicle (0.1% DMSO) for 10 minutes, prior to incubation with AX-8 or vehicle for 10 minutes. The nerve was then restimulated with capsaicin in the presence of PF/Vehicle and AX-8/Vehicle and the percentage of inhibition of the original response calculated. Following a wash period, the nerve was then restimulated with capsaicin to determine viability. The level of depolarization was recorded at each phase. The data were recorded as actual depolarisation levels and as a percentage inhibition (caused by the vehicle or test compound) of the mean of the initial, control recordings.

In the next data set the test system is capsaicin-induced cough. The experiment in a line: Capsaicin-induced cough in awake guinea pig. The data set is classed as in vivo. The procedure: AX-8's antitussive effect was evaluated in a standardized guinea pig model of cough (see, e.g., Brozmanova et al., 2012; Dong et al., 2016). Guinea pigs were placed in a plethysmography chamber and exposed for 10 minutes to nebulized capsaicin solution (0.1 mM) to induce cough. The cough frequency was detected as a transient change in airflow in the chamber and the signal recorded via a pressure transducer and computer. Additionally, the audio-amplified count was also recorded electronically. Coughs were counted for the 10-minute exposure period. The experiment was visually monitored by the investigator. A 5 mg/mL AX-8 solution was prepared by dissolving AX-8 in absolute ethanol at 200 mg/mL and then diluting in a solution of 4 mg/mL of sweet potato powder in saline (i.e., vehicle). The baseline frequency of coughing in response to exposure to capsaicin mist was recorded for the control (vehicle only) and treated (AX-8) group of animals (n=10 animals per group). Seven days later, animals were anesthetized with diethyl ether and a small animal laryngoscope was used to place the tip of a micro sprayer syringe in the oral cavity. Vehicle or AX-8 was administered into the oropharyngeal region at 75 μL per animal (n=10 animals per group). […] Ten minutes after administration, the guinea pigs were exposed to the capsaicin mist and the number of coughs recorded.

Data set [3] concerns 87 primary molecular targets including 13 enzyme and 74 binding assays. Put plainly: Off-target pharmacology study (SafetyScreen87 assay). Conditions: 100 μM AX-8. An excerpt: In addition, an off-target pharmacology study (SafetyScreen87 assay by Eurofins Pharma Discovery Services) has been performed. This assay package consists of 87 primary molecular targets including 13 enzyme and 74 binding assays, representing potential safety issues.

“Also recorded” adds a separate entry of the source.

Consider `CC(C)OC(=O)CNC(=O)[C@@H]1C[C@H](C)CC[C@H]1C(C)C` [AX-8, [((1R,2S,5R)-2-isopropyl-5-methyl-cyclohexanecarbonyl)-amino]-acetic acid isopropyl ester], for which the compound-related adverse effects result in data set [1] is given as “No compound-related adverse effects were observed”. In addition, in data set [2] (AX-8 1 μM, PF-05105679 10 μM pre-incubated 10 min, n=4), the “inhibition of the capsaicin-induced response in the presence of TRPM8 antagonist PF-05105679” value is recorded as “suppressed by pre-application of the TRPM8 antagonist PF-05105679; also recorded: blocked by the selective TRPM8 inhibitor PF-05105679”. For the same molecule, the “inhibition of the capsaicin-induced response (maximum)” value in data set [2] (capsaicin 1 μM, AX-8 10 nM-1 mM, 10 min incubation, n=3) is “up to 80%”. In data set [2] (capsaicin 1 μM, n=3), the “inhibition of the capsaicin-induced response versus concentration” value was “blocked in a dose-dependent manner”. In addition, in the data set with capsaicin-induced cough (0.375 mg/animal sprayed in oropharyngeal region 10 min before 0.1 mM capsaicin mist, Baseline (T) 25.0±2.0, n=10, p<0.01), the “capsaicin-induced coughs after treatment” value turned out to be 9.0±2.0 coughs/10 min. For the same molecule, the “effect on capsaicin-induced cough” value with capsaicin-induced cough (5 mg/mL solution, 75 μL per animal) is “inhibited significantly capsaicin-induced cough; also recorded: inhibits cough induced by an irritant”. Further, the “responses in SafetyScreen87 off-target panel” value in data set [3] is listed as “No significant responses were observed”.

These data come from patent US12167995B2, “[((1R,2S,5R)-2-isopropyl-5-methyl-cyclohexanecarbonyl)-amino]-acetic acid isopropyl ester for treatment of chronic cough” (AXALBION SA, priority 2019, dated 2024).
